The record followed here is ChEMBL document CHEMBL2375347, “Discovery of adamantane based highly potent HDAC inhibitors” (Bioorg Med Chem Lett, 2013).

pIC50: −log10 of the molar value. A value given as a limit tells only on which side of the number the result lay.

Data set [1] deals with NCI-H460. In words: Cytotoxicity against human NCI-H460 cells by MTT assay. The data set is classed as functional. (In general: Tetrazolium dyes change colour on reduction, which living cells bring about.)
The nature of data set [2]: Inhibition of mouse liver HDAC by fluorescence assay.
In a further data set the test system is U-251. The data set is described as follows: Cytotoxicity against human U251 cells by MTT assay. The data set is classed as functional.
A further data set concerns HCT-116. In words: Cytotoxicity against human HCT116 cells by MTT assay. The data set is classed as functional.
Data set [3] deals with NCI-H460. In words: Antitumor activity against human NCI-H460 cells xenografted in SCID mouse assessed as tumor growth inhibition at 5 mg/kg, ip qd for 21 days. In kind it is functional. As to conditions: 504 h, route intraperitoneal, read-out: TGI. (In general: A xenograft is tissue or cells of one species grown in another, often human tumour cells in immunodeficient mice.)

Data set [4] in a line: Toxicity in SCID mouse xenografted with human NCI-H460 cells. The data set is classed as organism-based. As to conditions: in vivo.
The subject of another data set is Mus musculus. The data set is described as follows: Toxicity in SCID mouse xenografted with human NCI-H460 cells assessed as loss in body weight at 5 mg/kg, ip qd for 21 days relative to control. In kind it is organism-based. Further details: dose 5 mg/kg, route intraperitoneal. The conditions noted are these: in vivo, 504 h.

A word on the GI50: it is the concentration giving 50% growth inhibition. A high value points to less potent growth inhibition. Usually pIC50 stands for −log10 of the IC50, conventionally taken in molar units. Read a high pIC50 as a small IC50. For the molecule `O=C(/C=C/c1ccc(CNC23CC4CC(CC(Cl)(C4)C2)C3)cc1)NO`, the figures for the GI50 in the data set on NCI-H460 [1], in the data set on U-251 and in the data set with HCT-116 were 4000 nM, 14000 nM and 11000 nM, respectively. Besides, the pIC50 in data set [2] is 7.40.
Taken in the same sequence, the figures for `O=C(/C=C/c1ccc(CNC(=O)C23CC4CC(CC(C4)C2)C3)cc1)NO` were 100 nM, 170 nM, 100 nM and 7.17.
With `O=C(/C=C/c1ccc(CNCC23CC4CC(CC(C4)C2)C3)cc1)NO`, the values for the GI50 in the data set with NCI-H460 [1], with U-251 and in the data set on HCT-116 were 300 nM, 800 nM and 500 nM, respectively. For the same molecule, in data set [2], the pIC50 was 8.96.
In the same order, the values of `O=C(/C=C/c1ccc(CNC(=O)C23CC4CC(CC(F)(C4)C2)C3)cc1)NO` are 500 nM, 1900 nM, 500 nM and 7.11.
In the same order, the values of `O=C(/C=C/c1ccc(CNCC23CC4CC(CC(F)(C4)C2)C3)cc1)NO` are 30 nM, 180 nM, 30 nM and 8.22.
Turning to `O=C(/C=C/c1ccc(CNC(=O)CC23CC4CC(CC(C4)C2)C3)cc1)NO`, the 50% growth inhibitory concentration (GI50) with NCI-H460 [1] was 1300 nM; in the data set on U-251 it was 1600 nM; in the data set with HCT-116 it was 1100 nM. In data set [2], the negative-log IC50 (pIC50) is 8.74.
`O=C(/C=C/c1ccc(CNCCC23CC4CC(CC(C4)C2)C3)cc1)NO`: the figures for the GI50 with NCI-H460 [1], in the data set with U-251 and in the data set on HCT-116 were 1100 nM, 1300 nM and 450 nM, respectively. In addition, the pIC50 in data set [2] is 9.05.
In the same order, the values of `O=C(/C=C/c1ccc(CNC2C3CC4CC(C3)CC2C4)cc1)NO` (stereo unspecified) are 70 nM, 170 nM, 80 nM and 7.22.
For `O=C(/C=C/c1ccc(CNC(=O)CC2C3CC4CC(C3)CC2C4)cc1)NO` (stereo unspecified), the concentration for 50% growth inhibition (GI50) in the data set on NCI-H460 [1] was determined as 400 nM; in the data set with U-251, 260 nM; in the data set on HCT-116, 500 nM. In data set [2], this molecule had a negative-log IC50 (pIC50) of 8.10.
For `O=C(/C=C/c1ccc(CNCCC2C3CC4CC(C3)CC2C4)cc1)NO` (stereo unspecified), the GI50 came out at 10 nM with NCI-H460 [1], 50 nM with U-251 and 60 nM in the data set on HCT-116. In data set [2], this molecule gave a pIC50 of 9.55.
Taken in the same sequence, the figures for `O=C(/C=C/c1ccc(CN2CC3CC4CC(C3)CC2C4)cc1)NO` were 4900 nM, 1700 nM, 1800 nM and 6.96.
In the same order, the values of `O=C(/C=C/c1ccc(CNC(=O)C23CC4CC(CC2C4)C3)cc1)NO` are 350 nM, 600 nM, 380 nM and 7.60.
With `O=C(/C=C/c1ccc(CNCC23CC4CC(CC2C4)C3)cc1)NO`, the inhibition in vivo at 5 mg/kg in the data set on NCI-H460 [3] turned out to be 45%. Further, in data set [4], the MTD came to 7.5 mg/kg. Also, the GI50 in the data set on NCI-H460 [1] is 10 nM; with U-251 it was 30 nM; in the data set with HCT-116, 10 nM. The pIC50 in data set [2] was 10.70. Also, the Activity in the data set with Mus musculus was less than 10%.
Take `CC(NCc1ccc(/C=C/C(=O)NO)cc1)C12CC3CC(CC1C3)C2` (stereo unspecified): the GI50 with NCI-H460 [1] is 30 nM; with U-251, 50 nM; with HCT-116, 30 nM. In data set [2], this molecule gave a negative logarithm of the IC50 (pIC50) of 10.52.
In the case of `O=C(/C=C/c1ccc(CNC23CC4CC(CC(C4)C2)C3)cc1)NO`, the GI50 with NCI-H460 [1] was 2800 nM; in the data set on U-251 it was 2700 nM; in the data set with HCT-116, 500 nM. In data set [2], this molecule had a negative-log IC50 (pIC50) of 7.15.
Take `CCOC12CC3CC(CC(NCc4ccc(/C=C/C(=O)NO)cc4)(C3)C1)C2`: the figures for the GI50 with NCI-H460 [1], with U-251 and with HCT-116 were 6000 nM, 2800 nM and 1000 nM, respectively. The negative logarithm of the IC50 (pIC50) in data set [2] was 6.34.
In the case of `COC12CC3CC(CC(NCc4ccc(/C=C/C(=O)NO)cc4)(C3)C1)C2`, the results for the GI50 in the data set with NCI-H460 [1], with U-251 and with HCT-116 were 7000 nM, 7000 nM and 1600 nM, respectively. Moreover, the pIC50 in data set [2] is 6.59.
Turning to `O=C(/C=C/c1ccc(CNC23CC4CC(CC(O)(C4)C2)C3)cc1)NO`, the results for the GI50 in the data set with NCI-H460 [1], with U-251 and in the data set with HCT-116 were 8000 nM, 4200 nM and 3000 nM, respectively. The pIC50 in data set [2] was 6.60.
As to `O=C(/C=C/c1ccc(CNC23CC4CC(CC(CO)(C4)C2)C3)cc1)NO`, the values for the GI50 in the data set with NCI-H460 [1], in the data set on U-251 and with HCT-116 were 9500 nM, 6000 nM and 2800 nM, respectively. In addition, the negative-log IC50 (pIC50) in data set [2] is 6.62.
In the same order, the values of `O=C(/C=C/c1ccc(CNC23CC4CC(C2)CC(c2ccccc2)(C4)C3)cc1)NO` are 5000 nM, 3200 nM, 2200 nM and 6.36.
In the case of `O=C(CCCCCCC(=O)Nc1ccccc1)NO` [VORINOSTAT], the GI50 was determined as 1000 nM with NCI-H460 [1], 2000 nM with U-251 and 1000 nM with HCT-116.
